The results in this text go back to ChEMBL document CHEMBL1144673, “Discovery of novel alpha-glucosidase inhibitors based on the virtual screening with the homology-modeled protein structure” (Bioorg Med Chem, 2008).

The structures appear in SMILES notation.

Chain of Alpha-glucosidase MAL12 (Saccharomyces cerevisiae S288c) (P53341 whole entry): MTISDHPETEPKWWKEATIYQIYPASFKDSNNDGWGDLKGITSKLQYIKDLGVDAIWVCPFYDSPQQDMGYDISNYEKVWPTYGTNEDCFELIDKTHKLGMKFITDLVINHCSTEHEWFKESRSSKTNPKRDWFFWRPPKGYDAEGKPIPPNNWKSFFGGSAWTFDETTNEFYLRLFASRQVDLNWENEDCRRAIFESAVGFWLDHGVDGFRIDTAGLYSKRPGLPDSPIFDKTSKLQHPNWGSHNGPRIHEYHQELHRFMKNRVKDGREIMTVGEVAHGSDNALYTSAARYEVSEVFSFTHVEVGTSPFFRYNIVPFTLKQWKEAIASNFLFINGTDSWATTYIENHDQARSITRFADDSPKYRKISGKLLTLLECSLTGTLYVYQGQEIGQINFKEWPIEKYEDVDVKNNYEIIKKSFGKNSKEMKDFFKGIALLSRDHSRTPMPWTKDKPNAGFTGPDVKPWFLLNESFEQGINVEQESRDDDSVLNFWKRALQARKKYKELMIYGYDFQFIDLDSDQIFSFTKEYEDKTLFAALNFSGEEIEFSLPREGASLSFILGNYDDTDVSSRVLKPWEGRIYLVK

This experiment addresses Alpha-glucosidase MAL12 (Saccharomyces cerevisiae S288c) (UniProt P53341). Kind of experiment: Inhibition of bakers yeast alpha-glucosidase at 50 uM.
Regarding `O=C(CSc1nnc(COc2cccc3cccnc23)n1-c1ccccc1)c1ccc(Cl)cc1`, the inhibition came to 66.5%.
The same measure for `Oc1ccc(-c2nnc(Nc3cccc(O)c3)c3ccccc23)cc1`: 61.4%; for `Cc1ccc(/N=c2\cc(-c3ccc4c(c3)OCO4)oc3ccc(O)cc23)cc1C`: 58%.
Under `Cc1ccc(-n2c(SCC(=O)Nc3ccc(F)c(F)c3)nnc2-c2ccccc2)cc1` stands 63.1%.
`O=C(Cn1c(=O)n(CC(=O)NCc2ccccc2)c2cc(Cl)ccc21)NCc1ccccc1` yielded an inhibition of 62.4%.
Under `O=C1NC(=O)N(c2ccccc2F)C(=O)/C1=C\c1ccccc1OCc1ccc(C(=O)O)cc1` stands 54%; under `O=C(Nc1ccccc1O)c1ccc(Oc2cccc(C(=O)Nc3ccccc3O)c2)cc1`, 70.1%.
Under `O=C(CSc1nc2ccccc2c(=O)n1-c1ccccc1)NCc1ccccc1` stands 50.9%; under `O=C(Nc1nccs1)c1c(O)c2ccccc2n(Cc2ccccc2)c1=O`, 52.3%.
`COc1ccc(N2C(=O)NC(=O)/C(=C\c3cn(CC(=O)Nc4ccccc4)c4ccccc34)C2=O)cc1` showed an inhibition of 50.6%.
The same measure for `Cn1cc(/C=C/C(=O)NC(=O)c2ccccc2O)c2ccccc21`: 71.4%.
Compound `N#CC1=C(N)n2c(s/c(=C\c3ccc(O)cc3)c2=O)=C(C(N)=O)C1c1ccc(O)cc1` (stereo not drawn) returned an inhibition of 59.2%.
Under `N#CC1=C(N)n2c(s/c(=C\c3ccccc3F)c2=O)=C(C(N)=O)C1c1ccccc1F` (stereo not drawn) stands 62.2%.
